Assay results as given in the Bradley open melting point set (2014).
Values joined by “and” are separate entries in the source; they are usually repeats but may differ in a detail not shown here. Equal entries are not always repeated.

First: Cc1ccccc1NC=O [N-(2-Methylphenyl)formamide]
Second: CC(C)Nc1ccccc1 [N-isopropylaniline]
The melting point of the first is higher: 53 °C for the first, -32 °C for the second.

Compared with `CC(=O)NC1=C(C)CCCC1` [N-(2-methylcyclohex-1-en-1-yl)acetamide], `CCCCc1ccc(NC(C)=O)cc1` [N-(4-butylphenyl)acetamide] is higher in melting point: 90 °C for the first, 105 °C for the second.

Going from `CN(C)C(=O)Nc1ccc(Cl)cc1` [N-(4-chlorophenyl)-N',N'-dimethylurea] to `CCOc1ccc(NC(C)=O)cc1` [Phenacetin], the melting point falls from 173 °C to 135 °C.

Compared with `CC(=O)Nc1cccc2c([N+](=O)[O-])cccc12` [N-(5-nitronaphthalen-1-yl)acetamide], `CC(=O)Nc1ccccc1C#Cc1ccccc1` [N-[2-(phenylethynyl)phenyl]acetamide] is lower in melting point: 218 °C for the first, 119 °C for the second.

First: O=C1CCC(=O)N1C1CCCCC1 [N-(cyclohexyl)succinimide]
Second: CCCCCC1CCCCC1 [N-pentylcyclohexane]
The melting point of the first is higher: 165 °C for the first, -58 °C for the second.

Compared with `CC(=O)NCO` [N-(hydroxymethyl)acetamide], `CC(=O)N[C@@H](CS)C(=O)O` [N-acetyl-l-cysteine] is higher in melting point: 50 °C for the first, 110 °C for the second.

Compared with `CC(=O)N[C@H]1C(O)O[C@H](CO)[C@@H](O)[C@@H]1O` (stereo partly drawn) [N-Acetyl-D-glucosamine], `CC(=O)N[C@@H](Cc1ccccc1)C(=O)O` [N-acetyl-l-phenylalanine] is lower in melting point: 205 °C for the first, 168 °C for the second.

Compared with `O=C(NC/1=N/C(=O)c2ncn(c2N\1)COCCO)C` [N-Acetylacyclovir], `CCOc1ccc(NC(=O)CN)cc1` [Phenokoll] is lower in melting point: 217 °C for the first, 101 °C for the second.

First: CCCCCCCCCCNCCCCCCCCCC [N-Decyldecan-1-amine]
Second: CCCCCCCCNCCCCCCCC [N-Octyloctan-1-amine]
The melting point of the first is higher: 43 °C for the first, 14 °C for the second.

`O=C(c1ccccc1)N(O)c1ccccc1` [N-Hydroxy-N-phenylbenzamide] and `O=C(c1ccccc1)N(O)c1ccccc1` [N-benzoyl-N-phenylhydroxylamine] are the same in melting point: 119 °C for the first, 119 °C for the second.

Going from `CCCCCNCCCCC` [N-Pentylpentan-1-amine] to `CCCCCCCCCC` [N-decane], the melting point rises from -44 °C to -30 °C.

First: CCCNCCC [N-Propylpropan-1-amine]
Second: CCCCOC(=O)CCC [N-butyl butyrate]
The melting point of the first is higher: -40 °C for the first, -92 °C for the second.

First: CCCCC(=O)O [N-Valeric Acid]
Second: CCCC(C)=O [Pentan-2-one]
The melting point of the first is higher: -34 °C for the first, -78 °C for the second.

Compared with `CC(=O)Nc1ccccc1C1C=c2ccccc2=N1` (stereo unspecified) [N-[2-(1H-indol-2-yl)phenyl]acetamide], `O=C(NCc1ccccc1)c1ccccc1` [N-benzylbenzamide] is lower in melting point: 152 °C for the first, 106 °C for the second.

Going from `CC(=O)Nc1ccc(-c2ccc3nn(-c4ccccc4)nc3c2)cc1` [N-[4-(2-phenyl-2H-benzotriazol-5-yl)phenyl]acetamide] to `O=C(Nc1ccccc1/C=C/c1ccccc1)c1ccccc1` [N-{2-[(E)-2-phenylethenyl]phenyl}benzamide], the melting point falls from 173 °C to 98 °C.

Compared with `O=C(C[C@H](NC(=O)OCc1ccccc1)C(=O)O)OCc1ccccc1` [N-benzyloxycarbonyl-l-aspartic acid 4-benzyl ester], `O=C(N[C@@H](Cc1ccccc1)C(=O)O)OCc1ccccc1` [N-benzyloxycarbonyl-l-phenylalanine] is lower in melting point: 106 °C for the first, 86 °C for the second.

First: COC(=O)[C@H](CCC(=O)O)NC(=O)OCc1ccccc1 [N-benzyloxycarbonyl-l-glutamic acid 1-methyl ester]
Second: O=C(N[C@@H](CO)C(=O)O)OCc1ccccc1 [N-benzyloxycarbonyl-l-serine]
The melting point of the first is lower: 67 °C for the first, 119 °C for the second.

First: CC(C)(C)OC(=O)N[C@@H](Cc1ccc(Cl)cc1Cl)C(=O)O [N-boc-2,4-dichloro-L-phenylalanine]
Second: CC(C)(C)OC(=O)N[C@@H](Cc1cccs1)C(=O)O [N-boc-3-(2-thienyl)-L-alanine]
The melting point of the first is higher: 135 °C for the first, 74 °C for the second.

First: CC(C)(C)OC(=O)N[C@](C)(C(=O)O)c1ccc2ccccc2c1 [N-boc-2-(2-naphthyl)-D-alanine]
Second: CC(C)(C)OC(=O)NCC(=O)O [N-boc-glycine]
The melting point of the first is higher: 98 °C for the first, 89 °C for the second.

Going from `CSCC[C@@H](NC(=O)OC(C)(C)C)C(=O)O` [N-boc-D-methionine] to `CCNC(=O)OC(C)(C)C` [N-boc-ethylamine], the melting point falls from 49 °C to 40 °C.

`CC(C)(C)OC(=O)N1CCC[C@@H]1C(=O)O` [N-boc-D-proline] and `CC(C)(C)OC(=O)N1CCC[C@H]1C(=O)O` [N-boc-L-proline] are the same in melting point: 134 °C for the first, 134 °C for the second.

First: C=CC(=O)OCCCC [N-butyl acrylate]
Second: CCCCCOC(C)=O [N-pentyl acetate]
The melting point of the first is higher: -64 °C for the first, -100 °C for the second.

Going from `CCCCOC(=O)c1ccccc1` [N-butyl benzoate] to `CCCc1ccccc1` [N-propylbenzene], the melting point falls from -22 °C to -100 °C.

Compared with `CCCCCCCCCCCC(=O)OCCCC` [N-butyl dodecanoate], `CCCCCCCCCCCCC` [N-tridecane] is higher in melting point: -10 °C for the first, -5 °C for the second.

First: CCCCCCCCCCCC [N-dodecane]
Second: CCCCCCCCCCC [N-undecane]
The melting point of the first is higher: -10 °C for the first, -26 °C for the second.

Compared with `CCN1C(=O)C=CC1=O` [N-ethylmaleimide], `CCC1(c2ccccc2)C(=O)NC(=O)NC1=O` [Phenobarbital] is higher in melting point: 45 °C for the first, 174 °C for the second.

Compared with `CCCCCCP(=O)(O)O` [N-hexylphosphonic acid], `CCCCCCCCCCCCCC(N)=O` [N-tetradecanamide] is lower in melting point: 109 °C for the first, 106 °C for the second.

First: ON(/C=C/c1ccccc1)c1ccccc1 [N-hydroxy-N-[(E)-2-phenylethenyl]aniline]
Second: c1ccc2ccccc2c1 [Naphthalene]
The melting point of the first is higher: 120 °C for the first, 77 °C for the second.

First: CNC[C@H](O)[C@@H](O)[C@H](O)[C@H](O)CO [N-methyl-D-glucamine]
Second: CC(C)NCC(O)c1cc(O)cc(O)c1 (stereo unspecified) [Orciprenaline]
The melting point of the first is higher: 130 °C for the first, 100 °C for the second.

First: CN(CCO)CCO [N-methyldiethanolamine]
Second: CCCC(C)O (stereo unspecified) [Pentan-2-ol]
The melting point of the first is higher: -21 °C for the first, -50 °C for the second.

First: CCCCCCCCCCCCCCCCCC [N-octadecane]
Second: CCCCCCCCCCCCCCCCCCN [Octadecan-1-amine]
The melting point of the first is lower: 28 °C for the first, 56 °C for the second.

Compared with `CC(=O)N(Nc1ccccc1/N=N/c1ccccc1)c1ccccc1` [N-phenyl-N'-{2-[(E)-phenyldiazenyl]phenyl}acetohydrazide], `CC(=O)N(C1=NC(=O)/C(=C/c2cc(C)n(-c3ccccc3)c2C)S1)c1ccccc1` [OSM-S-49] is higher in melting point: 103 °C for the first, 238 °C for the second.

Going from `Nc1ccc(Nc2ccccc2)cc1` [N-phenyl-p-phenylenediamine] to `c1ccc2c(c1)ccc1ccccc12` [Phenanthrene], the melting point rises from 74 °C to 100 °C.

Compared with `CCCOC(C)=O` [N-propyl acetate], `CCCNC(N)=O` [N-propylurea] is higher in melting point: -92 °C for the first, 102 °C for the second.

Going from `CCCCCCCCCCCCCC` [N-tetradecane] to `CCCCCCCCCCCCCCc1ccccc1` [N-tetradecylbenzene], the melting point rises from 6 °C to 9 °C.

Compared with `CC(C)(C)NCC(O)COc1cccc2c1C[C@H](O)[C@H](O)C2` (stereo partly specified) [Nadolol], `CCOC(=O)c1ccc(-n2c(C)ccc2C)cc1` [OSM-S-40] is lower in melting point: 130 °C for the first, 60.5 °C for the second.

Compared with `COc1ccc2cc(C(C)COC(C)=O)ccc2c1` (stereo unspecified) [Naproxol acetate], `CCOC(=O)c1cc(C)n(-c2ccc(C(F)(F)F)cc2)c1C` [OSM-S-32] is higher in melting point: 61 °C for the first, 67.5 °C for the second.

First: O=C1CN(/N=C/c2ccc([N+](=O)[O-])o2)C(=O)N1 [Nitrofurantoin]
Second: O=C1NC(=O)C(c2ccccc2)(c2ccccc2)N1 [Phenytoin]
The melting point of the first is lower: 268 °C for the first, 286 °C for the second.

Going from `O=[N+]([O-])OCC(CO[N+](=O)[O-])O[N+](=O)[O-]` [Nitroglycerin] to `COP(=S)(OC)Oc1ccc([N+](=O)[O-])cc1` [O,O-Dimethyl O-(4-nitrophenyl) phosphorothioate], the melting point rises from 13.5 °C to 36 °C.

Compared with `CN1Cc2c(N)cccc2C(c2ccccc2)C1` (stereo unspecified) [Nomifensine], `c1ccc2nc3ccccc3nc2c1` [Phenazine] is lower in melting point: 180 °C for the first, 158 °C for the second.

Compared with `CCCCCCCCCCCCCCCCCCCCCCCCCCCCC` [Nonacosane], `CCCCC=O` [Pentanal] is lower in melting point: 66 °C for the first, -91.5 °C for the second.

Going from `O=C(O)C(F)(F)C(F)(F)C(F)(F)C(F)(F)C(F)(F)C(F)(F)C(F)(F)C(F)(F)C(F)(F)F` [Nonadecafluorodecanoic acid] to `Cc1cc(C=O)c(C)n1-c1ccc(C(F)(F)F)cc1` [OSM-S-34], the melting point rises from 78 °C to 86 °C.

Going from `CCOP(=S)(OCC)Oc1nc(Cl)c(Cl)cc1Cl` [O,O-Diethyl O-(3,5,6-trichloropyridin-2-yl) phosphorothioate] to `Oc1c(Cl)c(Cl)c(Cl)c(Cl)c1Cl` [Pentachlorophenol], the melting point rises from 42.5 °C to 190 °C.

Going from `Cc1ccc(-n2c(C)ccc2C)cc1` [OSM-S-26] to `Cc1ccc(-n2c(C)cc(C=O)c2C)cc1` [OSM-S-29], the melting point rises from 45.5 °C to 110 °C.

Going from `Cc1cc(/C=C2\SC(N(CC#N)c3ccccc3)=NC2=O)c(C)n1-c1ccc(C(F)(F)F)cc1` [OSM-S-42] to `Cc1cc(C=O)c(C)n1-c1ccccn1` [OSM-S-44], the melting point falls from 182 °C to 62.5 °C.

Going from `Cc1c(C(=O)OCC(N)=O)cnn1-c1ccccc1` [OSM-S-57] to `OCc1ccccc1` [Phenylmethanol], the melting point falls from 154 °C to -15 °C.

First: O=C(O)c1cc(=O)[nH]c(=O)[nH]1 [Orotic Acid]
Second: O=C(O)CCc1nc(-c2ccccc2)c(-c2ccccc2)o1 [Oxaprozin]
The melting point of the first is higher: 346 °C for the first, 158 °C for the second.

Compared with `Clc1ccc(-c2ccc(Cl)cc2)cc1` [PCB-15], `O=C1C(=O)c2ccccc2-c2ccccc21` [Phenanthrene-9,10-dione] is higher in melting point: 149 °C for the first, 210 °C for the second.

Compared with `CC(C)(S)[C@@H](N)C(=O)O` [Penicillamine], `O=C(c1ccccc1)c1cccs1` [Phenyl(2-thienyl)methanone] is lower in melting point: 198 °C for the first, 57 °C for the second.

Going from `Oc1c(F)c(F)c(F)c(F)c1F` [Pentafluorophenol] to `CCCCC1C(=O)N(c2ccccc2)N(c2ccccc2)C1=O` [Phenylbutazone], the melting point rises from 35 °C to 107 °C.

In the case of `COc1ccc(C=Nc2ccccc2)cc1` [N-(4-methoxybenzylidene)aniline], the melting point is reported as 65 °C and 62.3 °C and 63 °C.
